Assay results taken from ChEMBL document CHEMBL5579811, “Synthesis, SARS-CoV-2 main protease inhibition, molecular docking and in silico ADME studies of furanochromene-quinoline hydrazone derivatives” (Bioorg Med Chem Lett, 2024).
pIC50: −log10 of the molar value.

Biological target: Replicase polyprotein 1ab (Severe acute respiratory syndrome coronavirus 2, UniProt P0DTD1)
Test: Inhibition of SARS-COV-2 main protease using fluorogenic substrate (DABCYL)-Lys-Thr- Ser-Ala-Val-Leu-Gln-Ser-Gly-Phe-Arg-Lys-Met-Glu-(EDANS)-NH2 measured every 5 mins for 50 mins by plate reader assay

Compound | pIC50
CC1(C)C=Cc2c(ccc3cc(C(=O)N/N=C/c4ccc5cccc(O)c5n4)oc23)O1 | 3.74
CC1(C)C=Cc2c(ccc3cc(C(=O)N/N=C/c4ccnc5ccccc45)oc23)O1 | 3.89
CC1(C)C=Cc2c(ccc3cc(C(=O)N/N=C/c4cnc5ccccc5c4)oc23)O1 | 4.53
CC1(C)C=Cc2c(ccc3cc(C(=O)N/N=C/c4ccc5ncccc5c4)oc23)O1 | 4.47
CC1(C)C=Cc2c(ccc3cc(C(=O)N/N=C/c4cccc5cccnc45)oc23)O1 | 4.79
CC1(C)C=Cc2c(ccc3cc(C(=O)N/N=C/c4ccc5ccccc5n4)oc23)O1 | < 3.60
CC1(C)C=Cc2c(ccc3cc(C(=O)N/N=C/c4cccc5ncccc45)oc23)O1 | 4.37
